According to patent US20120309683A1, “USE OF […] ADENYLATE CYCLASE-ACTIVATING POLYPEPTIDE (PACAP) AND PACAP ANALOGS AS ADJUNCTIVE TREATMENTS WITH INHIBITORS OF CALCINEURIN OR INHIBITORS OF THE […] TARGET OF RAPAMYCIN (mTOR) COMPLEXES” (The Administrators of the Tulane Educational Fund, priority 2010, published 2012):

Experiments:
IL-2 synthesis = settings: cited from earlier work
[1] = system: HK-2 human kidney cells (human renal proximal tubule epithelial cells); assay: Tacrolimus-induced loss of viability of HK-2 cells, lactate dehydrogenase in intact cells; type: cell-based; settings: tacrolimus alone, HK-2 cells
Procedure: The HK-2 human kidney cells were cultured in Keratinocyte-Serum Free Medium supplemented with recombinant epidermal growth factor and bovine pituitary extract. […] Each value represents the mean plus/minus the standard error of five determinations. **p<0.01 and *p<0.05 compared to the cells treated only with tacrolimus.

C=CC[C@@H]1/C=C(\C)C[C@H](C)C[C@H](OC)[C@H]2O[C@@](O)(C(=O)C(=O)N3CCCC[C@H]3C(=O)O[C@H](/C(C)=C/[C@@H]3CC[C@@H](O)[C@H](OC)C3)[C@H](C)[C@@H](O)CC1=O)[C@H](C)C[C@@H]2OC [tacrolimus, reference compound]
potency as an inhibitor of IL-2 synthesis relative to cyclosporine A (IL-2 synthesis): about 100 -fold
number of viable cells [1]: large significant decrease in the number of viable cells
